Data from ChEMBL document CHEMBL1147994 (Bioorg Med Chem Lett, 2007).

Legend:
[1] = biological target: Dipeptidyl peptidase 8 (Homo sapiens, UniProt Q6V1X1); experiment: Inhibition of DPP8
[2] = biological target: Dipeptidyl peptidase 9 (Homo sapiens, UniProt Q86TI2); experiment: Inhibition of DPP9
[3] = biological target: Dipeptidyl peptidase 2 (Homo sapiens, UniProt Q9UHL4); experiment: Inhibition of QPP

Chain of Dipeptidyl peptidase 8 (Q6V1X1 whole entry): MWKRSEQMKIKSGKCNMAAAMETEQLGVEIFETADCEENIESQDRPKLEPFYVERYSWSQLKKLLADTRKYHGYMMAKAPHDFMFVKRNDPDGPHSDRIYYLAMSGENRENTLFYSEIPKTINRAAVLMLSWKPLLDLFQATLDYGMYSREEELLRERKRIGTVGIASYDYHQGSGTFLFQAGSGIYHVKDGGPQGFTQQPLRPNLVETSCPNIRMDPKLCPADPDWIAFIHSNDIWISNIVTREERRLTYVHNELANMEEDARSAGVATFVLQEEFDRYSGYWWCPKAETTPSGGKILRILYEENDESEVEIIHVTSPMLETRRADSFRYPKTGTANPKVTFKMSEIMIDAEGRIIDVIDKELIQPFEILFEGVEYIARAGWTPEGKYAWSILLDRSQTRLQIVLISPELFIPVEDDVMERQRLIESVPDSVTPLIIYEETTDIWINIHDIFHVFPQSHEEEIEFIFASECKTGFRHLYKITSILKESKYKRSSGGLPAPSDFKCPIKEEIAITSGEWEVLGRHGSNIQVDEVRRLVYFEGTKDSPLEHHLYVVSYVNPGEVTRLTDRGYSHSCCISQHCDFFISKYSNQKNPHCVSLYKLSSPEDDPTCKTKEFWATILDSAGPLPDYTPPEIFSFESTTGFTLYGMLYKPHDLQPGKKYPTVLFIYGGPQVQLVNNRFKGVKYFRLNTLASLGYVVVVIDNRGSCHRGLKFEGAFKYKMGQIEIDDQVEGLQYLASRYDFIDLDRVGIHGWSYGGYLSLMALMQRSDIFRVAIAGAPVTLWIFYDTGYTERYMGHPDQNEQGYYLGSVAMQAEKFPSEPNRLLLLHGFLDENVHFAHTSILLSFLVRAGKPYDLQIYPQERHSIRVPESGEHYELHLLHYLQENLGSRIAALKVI
Chain of Dipeptidyl peptidase 9 (Q86TI2 whole entry): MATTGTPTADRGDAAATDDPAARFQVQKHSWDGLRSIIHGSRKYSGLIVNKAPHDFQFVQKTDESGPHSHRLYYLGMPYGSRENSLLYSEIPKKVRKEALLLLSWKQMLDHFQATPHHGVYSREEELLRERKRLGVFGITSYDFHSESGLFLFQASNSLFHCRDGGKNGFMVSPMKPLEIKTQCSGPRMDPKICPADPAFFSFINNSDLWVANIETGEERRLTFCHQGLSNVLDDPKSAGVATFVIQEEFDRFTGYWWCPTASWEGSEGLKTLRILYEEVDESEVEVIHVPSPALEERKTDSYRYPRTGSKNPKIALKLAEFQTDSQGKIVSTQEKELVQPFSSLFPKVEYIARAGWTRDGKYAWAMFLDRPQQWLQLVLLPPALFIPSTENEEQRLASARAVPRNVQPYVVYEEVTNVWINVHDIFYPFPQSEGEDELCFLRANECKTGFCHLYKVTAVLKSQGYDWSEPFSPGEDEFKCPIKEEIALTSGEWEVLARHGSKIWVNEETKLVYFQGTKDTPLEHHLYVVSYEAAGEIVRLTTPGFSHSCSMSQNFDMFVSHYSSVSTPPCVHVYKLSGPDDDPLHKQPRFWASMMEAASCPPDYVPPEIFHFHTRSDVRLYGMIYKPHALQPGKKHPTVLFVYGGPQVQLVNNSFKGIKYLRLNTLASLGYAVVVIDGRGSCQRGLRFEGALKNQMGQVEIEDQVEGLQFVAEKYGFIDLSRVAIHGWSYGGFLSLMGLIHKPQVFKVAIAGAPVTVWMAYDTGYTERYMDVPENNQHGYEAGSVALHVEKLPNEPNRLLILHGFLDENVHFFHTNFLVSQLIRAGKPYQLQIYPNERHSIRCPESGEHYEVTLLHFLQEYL

IC50 [1]: > 100 µM | IC50 [2]: > 100 µM | IC50 [3]: > 100 µM
SMILES: N[C@H]1C[C@H](N2CCn3c(nnc3C(F)(F)F)C2)CC[C@@H]1c1cc(F)c(F)cc1F
